# According to patent publication EP1171107B1, “USE OF A PHARMACEUTICAL COMPOSITION IN THE MANUFACTURE OF A MEDICAMENT FOR THE TREATMENT OF PATHOLOGICAL CONDITIONS OF THE EYE CAUSED BY BACTERIA, VIRUSES, FUNGI, YEASTS AND PROTOZOA” (Dr. GERHARD MANN chem.-pharm. Fabrik GmbH, priority 1999, dated 2000):
# Legend:
# Assay type in all cases: cell-based
# P.aeruginosa [1] = assay: Qualitative examination: enrichment of the inoculated test preparation in broth
# Excerpt: (§1) Escherichia (E.coli) Staphylococcus (S.aureus) Streptococcus (Sc.) Pneumoniae Pseudomonas (P.aeruginosa) Staphylococcus (S. epidermidis) Haemophilus (H. influenzae)
# (§2) Die verschiedenen Testkeime wurde jeweils aus einem Lyophilisat in NaCl-Peptonpuffer homogenisiert und auf Caseinpepton-Sojymehlpepton. (Caso-) Agar (Fa. bioMérieux; Art. Nr. 43019) bez. Kochblut-Agar (Fa. bioMérieux; Art. Nr. 43109) subkultiviert. Die Teststämme wurden vor Versuchsbeginn durch Erstellen eines biochemischen Profils mittels ATB/Vitek-System (Fa. bioMérieux, Nürtingen) auf Reinheit und Identität überprüft.
# (§3) Die verschiedenen Testsubstanzen a. bis j. wurden jeweils zu 5 ml in sterile Zentrifugenröhrchen abgefüllt und mit ca. 10^5 KBE^*/ml (* = koloniebildende Einheiten) der oben genannten Testkeime kontaminiert. Pro Substanz wurde für jeden Testkeim und jede zu prüfende Testzeit ein separater Ansatz angeimpft, d.h.10 Testsubstanzen zu jeweils 7 Testzeiten und 6 Testkeime (= insgesamt 502 Testansätze). Nach 2, 6, 8, 24, 32, 48 und 72 Stunden wurde dann der jeweilige Testansatz 10 Minuten bei 3000 rpm abzentrifugiert. Der Überstand wurde dekantiert und das Pellet in 5 ml NaCl Peptonpuffer aufgenommen und resuspendiert. Die Suspension wurde erneut 10 Minuten bei 3000 rpm abzentrifugiert und 5 ml NaCl-Peptonpuffer aufgenommen und mittels Vortex homogenisiert.
# (§4) Jeweils 2 ml der Testansätze wurden in 20 ml Caso-Bouillon oder für H. influenzae, in Fildes-Medium der Firma Becton Dickinson, ARt. Nr. 0349-739, angereichert und ebenfalls maximal 4 Tage bei 33± 2°C bebrütet. Ein negatives Ergebnis der Anreicherung belegt die Elimination der inokulierten Keime.
# E.coli [2] = assay: Quantitative germ count (re-isolation, surface method) after inoculating the test preparation; conditions: Ausgangskeimzahl 2,7 x 10^5 KBE/ml
# Excerpt: as §1, §2
# (§5) Die Ausgangskeimzahl wurde im Oberflächenverfahren mit Hilfe eines Spiralplaters (Fa. Meintrup, Lähden) ermittelt und ist im einzelnen den Tabellen 1-12 zu entnehmen.
# as §3, with “Nach 2, 6, 8, 24, 32, 48 und 72 Stunden wurde dann der jeweilige Testansatz 10 Minuten bei 3000 rpm abzentrifugiert.” left out
# (§6) Die anschließende Keimzahlbestimmung erfolgte im Oberflächenverfahren durch Ausspiralisieren eines […] Aliquots auf Caso-Agar bzw. für H. influenzae auf Kochblut-Agar. Die Platten wurden bei 33±2°C für max. 4 Tage bebrütet. Die Nachweisgrenze des Verfahrens liegt bei 100 KBE/ml.
# Sc. pneumoniae [3] = assay: as above; conditions: Ausgangskeimzahl 3,7 x 10^5 KBE/ml
# Excerpt: as §1, §2, §5
# as §3, with “Nach 2, 6, 8, 24, 32, 48 und 72 Stunden wurde dann der jeweilige Testansatz 10 Minuten bei 3000 rpm abzentrifugiert.” left out
# as §6
# S.aureus [4] = assay: as above; conditions: Ausgangskeimzahl 2,6 x 10^5 KBE/ml
# Excerpt: as §1, §2, §5
# as §3, with “Nach 2, 6, 8, 24, 32, 48 und 72 Stunden wurde dann der jeweilige Testansatz 10 Minuten bei 3000 rpm abzentrifugiert.” left out
# as §6
# H.influenzae = assay: as above; conditions: Ausgangskeimzahl 2,8 x 10^5 KBE/ml
# Excerpt: as §1, §2, §5
# as §3, with “Nach 2, 6, 8, 24, 32, 48 und 72 Stunden wurde dann der jeweilige Testansatz 10 Minuten bei 3000 rpm abzentrifugiert.” left out
# as §6
# E.coli [5] = assay: Qualitative examination: enrichment of the inoculated test preparation in broth
# Excerpt: as §1, §2
# as §3, with “Nach 2, 6, 8, 24, 32, 48 und 72 Stunden wurde dann der jeweilige Testansatz 10 Minuten bei 3000 rpm abzentrifugiert.” left out
# as §4
# Sc. pneumoniae [6] = assay: as above
# Excerpt: as §1, §2
# as §3, with “Nach 2, 6, 8, 24, 32, 48 und 72 Stunden wurde dann der jeweilige Testansatz 10 Minuten bei 3000 rpm abzentrifugiert.” left out
# as §4
# S.aureus [7] = assay: as above
# Excerpt: as §1, §2
# as §3, with “Nach 2, 6, 8, 24, 32, 48 und 72 Stunden wurde dann der jeweilige Testansatz 10 Minuten bei 3000 rpm abzentrifugiert.” left out
# as §4
# S.epidermidis [8] = assay: as above
# Excerpt: as §1, §2
# as §3, with “Nach 2, 6, 8, 24, 32, 48 und 72 Stunden wurde dann der jeweilige Testansatz 10 Minuten bei 3000 rpm abzentrifugiert.” left out
# as §4
# P.aeruginosa [9] = assay: Quantitative germ count (re-isolation, surface method) after inoculating the test preparation; conditions: Ausgangskeimzahl 2,7 x 10^5 KBE/ml
# Excerpt: as §1, §2, §5, §3, §6
# S.epidermidis [10] = assay: as above; conditions: Ausgangskeimzahl 2,1 x 10^5 KBE/ml
# Excerpt: as §1, §2, §5, §3, §6
smiles,measurement,setting,value
"CCCCCCCCCCCC[N+](C)(C)Cc1ccccc1 [Benzalkoniumchlorid 0,005 Gew.-%, Benzododeciniumchlorid]",Ergebnis der Reisolierung qualitiativ (+/-) nach Anreicherung,P.aeruginosa [1]; 2 h after inoculation,-
same,Ergebnis der Reisolierung qualitiativ (+/-) nach Anreicherung,P.aeruginosa [1]; 4 h after inoculation,-
same,Ergebnis der Reisolierung qualitiativ (+/-) nach Anreicherung,P.aeruginosa [1]; 6 h after inoculation,-
same,Ergebnis der Reisolierung qualitiativ (+/-) nach Anreicherung,P.aeruginosa [1]; 8 h after inoculation,-
same,Ergebnis der Reisolierung qualitiativ (+/-) nach Anreicherung,P.aeruginosa [1]; 24 h after inoculation,-
same,Ergebnis der Reisolierung qualitiativ (+/-) nach Anreicherung,P.aeruginosa [1]; 32 h after inoculation,-
same,Ergebnis der Reisolierung qualitiativ (+/-) nach Anreicherung,P.aeruginosa [1]; 48 h after inoculation,-
same,Ergebnis der Reisolierung qualitiativ (+/-) nach Anreicherung,P.aeruginosa [1]; 72 h after inoculation,-
same,Ergebnis der Reisolierung (in KBE/ml),E.coli [2]; 2 h after inoculation,<100 KBE/ml
same,Ergebnis der Reisolierung (in KBE/ml),E.coli [2]; 4 h after inoculation,<100 KBE/ml
same,Ergebnis der Reisolierung (in KBE/ml),E.coli [2]; 6 h after inoculation,<100 KBE/ml
same,Ergebnis der Reisolierung (in KBE/ml),E.coli [2]; 8 h after inoculation,<100 KBE/ml
same,Ergebnis der Reisolierung (in KBE/ml),E.coli [2]; 24 h after inoculation,<100 KBE/ml
same,Ergebnis der Reisolierung (in KBE/ml),E.coli [2]; 32 h after inoculation,<100 KBE/ml
same,Ergebnis der Reisolierung (in KBE/ml),E.coli [2]; 48 h after inoculation,<100 KBE/ml
same,Ergebnis der Reisolierung (in KBE/ml),E.coli [2]; 72 h after inoculation,<100 KBE/ml
same,Ergebnis der Reisolierung (in KBE/ml),Sc. pneumoniae [3]; 2 h after inoculation,<100 KBE/ml
same,Ergebnis der Reisolierung (in KBE/ml),Sc. pneumoniae [3]; 4 h after inoculation,<100 KBE/ml
same,Ergebnis der Reisolierung (in KBE/ml),Sc. pneumoniae [3]; 6 h after inoculation,<100 KBE/ml
same,Ergebnis der Reisolierung (in KBE/ml),Sc. pneumoniae [3]; 8 h after inoculation,<100 KBE/ml
same,Ergebnis der Reisolierung (in KBE/ml),Sc. pneumoniae [3]; 24 h after inoculation,<100 KBE/ml
same,Ergebnis der Reisolierung (in KBE/ml),Sc. pneumoniae [3]; 32 h after inoculation,<100 KBE/ml
same,Ergebnis der Reisolierung (in KBE/ml),Sc. pneumoniae [3]; 48 h after inoculation,<100 KBE/ml
same,Ergebnis der Reisolierung (in KBE/ml),Sc. pneumoniae [3]; 72 h after inoculation,<100 KBE/ml
same,Ergebnis der Reisolierung (in KBE/ml),S.aureus [4]; 2 h after inoculation,<100 KBE/ml
same,Ergebnis der Reisolierung (in KBE/ml),S.aureus [4]; 4 h after inoculation,<100 KBE/ml
same,Ergebnis der Reisolierung (in KBE/ml),S.aureus [4]; 6 h after inoculation,<100 KBE/ml
same,Ergebnis der Reisolierung (in KBE/ml),S.aureus [4]; 8 h after inoculation,<100 KBE/ml
same,Ergebnis der Reisolierung (in KBE/ml),S.aureus [4]; 24 h after inoculation,<100 KBE/ml
same,Ergebnis der Reisolierung (in KBE/ml),S.aureus [4]; 32 h after inoculation,<100 KBE/ml
same,Ergebnis der Reisolierung (in KBE/ml),S.aureus [4]; 48 h after inoculation,<100 KBE/ml
same,Ergebnis der Reisolierung (in KBE/ml),S.aureus [4]; 72 h after inoculation,<100 KBE/ml
same,Ergebnis der Reisolierung (in KBE/ml),H.influenzae; 2 h after inoculation,<100 KBE/ml
same,Ergebnis der Reisolierung (in KBE/ml),H.influenzae; 4 h after inoculation,<100 KBE/ml
same,Ergebnis der Reisolierung (in KBE/ml),H.influenzae; 6 h after inoculation,<100 KBE/ml
same,Ergebnis der Reisolierung (in KBE/ml),H.influenzae; 8 h after inoculation,<100 KBE/ml
same,Ergebnis der Reisolierung (in KBE/ml),H.influenzae; 24 h after inoculation,<100 KBE/ml
same,Ergebnis der Reisolierung (in KBE/ml),H.influenzae; 32 h after inoculation,<100 KBE/ml
same,Ergebnis der Reisolierung (in KBE/ml),H.influenzae; 48 h after inoculation,<100 KBE/ml
same,Ergebnis der Reisolierung (in KBE/ml),H.influenzae; 72 h after inoculation,<100 KBE/ml
same,Ergebnis der Reisolierung qualitiativ (+/-) nach Anreicherung,E.coli [5]; 2 h after inoculation,-
same,Ergebnis der Reisolierung qualitiativ (+/-) nach Anreicherung,E.coli [5]; 4 h after inoculation,-
same,Ergebnis der Reisolierung qualitiativ (+/-) nach Anreicherung,E.coli [5]; 6 h after inoculation,-
same,Ergebnis der Reisolierung qualitiativ (+/-) nach Anreicherung,E.coli [5]; 8 h after inoculation,-
same,Ergebnis der Reisolierung qualitiativ (+/-) nach Anreicherung,E.coli [5]; 24 h after inoculation,-
same,Ergebnis der Reisolierung qualitiativ (+/-) nach Anreicherung,E.coli [5]; 32 h after inoculation,-
same,Ergebnis der Reisolierung qualitiativ (+/-) nach Anreicherung,E.coli [5]; 48 h after inoculation,-
same,Ergebnis der Reisolierung qualitiativ (+/-) nach Anreicherung,E.coli [5]; 72 h after inoculation,-
same,Ergebnis der Reisolierung qualitiativ (+/-) nach Anreicherung,Sc. pneumoniae [6]; 2 h after inoculation,-
same,Ergebnis der Reisolierung qualitiativ (+/-) nach Anreicherung,Sc. pneumoniae [6]; 4 h after inoculation,-
same,Ergebnis der Reisolierung qualitiativ (+/-) nach Anreicherung,Sc. pneumoniae [6]; 6 h after inoculation,-
same,Ergebnis der Reisolierung qualitiativ (+/-) nach Anreicherung,Sc. pneumoniae [6]; 8 h after inoculation,-
same,Ergebnis der Reisolierung qualitiativ (+/-) nach Anreicherung,Sc. pneumoniae [6]; 24 h after inoculation,-
same,Ergebnis der Reisolierung qualitiativ (+/-) nach Anreicherung,Sc. pneumoniae [6]; 32 h after inoculation,-
same,Ergebnis der Reisolierung qualitiativ (+/-) nach Anreicherung,Sc. pneumoniae [6]; 48 h after inoculation,-
same,Ergebnis der Reisolierung qualitiativ (+/-) nach Anreicherung,Sc. pneumoniae [6]; 72 h after inoculation,-
same,Ergebnis der Reisolierung qualitiativ (+/-) nach Anreicherung,S.aureus [7]; 2 h after inoculation,-
same,Ergebnis der Reisolierung qualitiativ (+/-) nach Anreicherung,S.aureus [7]; 4 h after inoculation,-
same,Ergebnis der Reisolierung qualitiativ (+/-) nach Anreicherung,S.aureus [7]; 6 h after inoculation,-
same,Ergebnis der Reisolierung qualitiativ (+/-) nach Anreicherung,S.aureus [7]; 8 h after inoculation,-
same,Ergebnis der Reisolierung qualitiativ (+/-) nach Anreicherung,S.aureus [7]; 24 h after inoculation,-
same,Ergebnis der Reisolierung qualitiativ (+/-) nach Anreicherung,S.aureus [7]; 32 h after inoculation,-
same,Ergebnis der Reisolierung qualitiativ (+/-) nach Anreicherung,S.aureus [7]; 48 h after inoculation,-
same,Ergebnis der Reisolierung qualitiativ (+/-) nach Anreicherung,S.aureus [7]; 72 h after inoculation,-
same,Ergebnis der Reisolierung qualitiativ (+/-) nach Anreicherung,S.epidermidis [8]; 2 h after inoculation,-
same,Ergebnis der Reisolierung qualitiativ (+/-) nach Anreicherung,S.epidermidis [8]; 4 h after inoculation,-
same,Ergebnis der Reisolierung qualitiativ (+/-) nach Anreicherung,S.epidermidis [8]; 6 h after inoculation,-
same,Ergebnis der Reisolierung qualitiativ (+/-) nach Anreicherung,S.epidermidis [8]; 8 h after inoculation,-
same,Ergebnis der Reisolierung qualitiativ (+/-) nach Anreicherung,S.epidermidis [8]; 24 h after inoculation,-
same,Ergebnis der Reisolierung qualitiativ (+/-) nach Anreicherung,S.epidermidis [8]; 32 h after inoculation,-
same,Ergebnis der Reisolierung qualitiativ (+/-) nach Anreicherung,S.epidermidis [8]; 48 h after inoculation,-
same,Ergebnis der Reisolierung qualitiativ (+/-) nach Anreicherung,S.epidermidis [8]; 72 h after inoculation,-
same,Ergebnis der Reisolierung (in KBE/ml),P.aeruginosa [9]; 2 h after inoculation,<100 KBE/ml
same,Ergebnis der Reisolierung (in KBE/ml),P.aeruginosa [9]; 4 h after inoculation,<100 KBE/ml
same,Ergebnis der Reisolierung (in KBE/ml),P.aeruginosa [9]; 6 h after inoculation,<100 KBE/ml
same,Ergebnis der Reisolierung (in KBE/ml),P.aeruginosa [9]; 8 h after inoculation,<100 KBE/ml
same,Ergebnis der Reisolierung (in KBE/ml),P.aeruginosa [9]; 24 h after inoculation,<100 KBE/ml
same,Ergebnis der Reisolierung (in KBE/ml),P.aeruginosa [9]; 32 h after inoculation,<100 KBE/ml
same,Ergebnis der Reisolierung (in KBE/ml),P.aeruginosa [9]; 48 h after inoculation,<100 KBE/ml
same,Ergebnis der Reisolierung (in KBE/ml),P.aeruginosa [9]; 72 h after inoculation,<100 KBE/ml
same,Ergebnis der Reisolierung (in KBE/ml),S.epidermidis [10]; 2 h after inoculation,<100 KBE/ml
same,Ergebnis der Reisolierung (in KBE/ml),S.epidermidis [10]; 4 h after inoculation,<100 KBE/ml
same,Ergebnis der Reisolierung (in KBE/ml),S.epidermidis [10]; 6 h after inoculation,<100 KBE/ml
same,Ergebnis der Reisolierung (in KBE/ml),S.epidermidis [10]; 8 h after inoculation,<100 KBE/ml
same,Ergebnis der Reisolierung (in KBE/ml),S.epidermidis [10]; 24 h after inoculation,<100 KBE/ml
same,Ergebnis der Reisolierung (in KBE/ml),S.epidermidis [10]; 32 h after inoculation,<100 KBE/ml
same,Ergebnis der Reisolierung (in KBE/ml),S.epidermidis [10]; 48 h after inoculation,<100 KBE/ml
same,Ergebnis der Reisolierung (in KBE/ml),S.epidermidis [10]; 72 h after inoculation,<100 KBE/ml
